Measured values published in patent publication US11603349B2, “Anti-fibrotic compounds” (Certa Therapeutics Pty Ltd, priority 2017, dated 2023).
Where a name gives a salt, the structure may show the parent alone.

Tests used:
[1] = tested on: TGF-β induced [14C]-proline incorporation in rat mesangial cells; assay: [14C]-proline incorporation assay (collagen biosynthesis); format: cell-based; conditions: Rattus norvegicus, Mesangial cell, 44 h, inhibition of TGF-β1 (1 ng/ml) induced [14C]-proline incorporation, IRMC cells
[2] = MTS tetrazolium reduction cell viability assay; conditions: rat, rat mesangial cells (1097/IRMC cells), TGF-β1 stimulated, CC50 (μM), vs 1% DMSO vehicle

Row | SMILES | IC50 [1] | CC50 at 48 h [2]
1 | C#CCOc1ccc(/C=C/C(=O)Nc2cccc(C#N)c2)c(OCCN(C)C)c1OC [Example 76, (E)-N-(3-cyanophenyl)-3-[2-[2-(dimethylamino)ethoxy]-3-methoxy-4-prop-2-ynoxy-phenyl]prop-2-enamide] | 14.9 µM | 18.1 µM
2 | C#CCOc1ccc(/C=C/C(=O)Nc2ccccc2C#N)c(OCCN(C)C)c1OC [Example 77] | 4.69 µM | 26.5 µM
3 | C#CCOc1ccc(/C=C/C(=O)Nc2ccccc2C(=O)O)c(OCCN(C)C)c1OC [Example 78, (E)-2-(3-(2-(2-(dimethylamino)ethoxy)-3-methoxy-4-(prop-2-yn-1-yloxy)phenyl)acrylamido)-benzoic acid] | 30.4 µM | 404 µM
4 | C#CCOc1ccc(/C=C/C(=O)Nc2ccccc2C#N)c(OC2CN(C)C2)c1OC [Example 79, (E)-N-(2-cyanophenyl)-3-[3-methoxy-2-(1-methylazetidin-3-yl)oxy-4-prop-2-ynoxy-phenyl]prop-2-enamide] | 9.52 µM | 23.4 µM
5 | C#CCOc1ccc(/C=C/C(=O)Nc2ccccc2C#N)c(OC2CCN(C)C2)c1OC (stereo not drawn) [Example 81, (E)-N-(2-cyanophenyl)-3-[3-methoxy-2-(1-methylpyrrolidin-3-yl)oxy-4-prop-2-ynoxy-phenyl]prop-2-enamide] | 7.15 µM | 24.9 µM
6 | C#CCOc1ccc(/C=C/C(=O)Nc2ccccc2C#N)c(OC2CCNC2)c1OC (stereo not drawn) [Example 82, (E)-N-(2-cyanophenyl)-3-(3-methoxy-4-prop-2-ynoxy-2-pyrrolidin-3-yloxy-phenyl)prop-2-enamide] | 3.42 µM | 13.5 µM
7 | C#CCOc1ccc(/C=C/C(=O)Nc2ccccc2C#N)c(OCCN2CCOCC2)c1OC [Example 85, (E)-N-(2-cyanophenyl)-3-[3-methoxy-2-(2-morpholinoethoxy)-4-prop-2-ynoxy-phenyl]prop-2-enamide] | 8.92 µM | 109 µM
8 | C#CCOc1ccc(/C=C/C(=O)Nc2ccccc2C(=O)O)c(OCCCN(C)C)c1OC [Example 86, 2-[[(E)-3-[2-[3-(dimethylamino)propoxy]-3-methoxy-4-prop-2-ynoxy-phenyl]prop-2-enoyl]amino]benzoic acid] | 24.9 µM | > 300 µM
9 | C#CCOc1ccc(/C=C/C(=O)Nc2ccccc2C#N)c(OCCCN(C)C)c1OC [Example 87, (E)-N-(2-cyanophenyl)-3-[2-[3-(dimethylamino)propoxy]-3-methoxy-4-prop-2-ynoxy-phenyl]prop-2-enamide] | 3.69 µM | 12.1 µM
10 | C#CCOc1ccc(/C=C/C(=O)Nc2ccccc2C#N)c(OC2CCNCC2)c1OC [Example 88, (E)-N-(2-cyanophenyl)-3-[3-methoxy-2-(4-piperidyloxy)-4-prop-2-ynoxy-phenyl]prop-2-enamide] | 4.45 µM | 12.4 µM
11 | C#CCOc1ccc(/C=C/C(=O)Nc2ccccc2C#N)c(OC2CCN(C)CC2)c1OC [Example 89, (E)-N-(2-cyanophenyl)-3-[3-methoxy-2-[(1-methyl-4-piperidyl)oxy]-4-prop-2-ynoxy-phenyl]prop-2-enamide] | 4.66 µM | 19.8 µM
12 | COc1c(OCC2CC2)ccc(/C=C/C(=O)Nc2ccccc2C(=O)O)c1OCCN(C)C [Example 90, 2-[[(E)-3-[4-(cyclopropylmethoxy)-2-[2-(dimethylamino)ethoxy]-3-methoxy-phenyl]prop-2-enoyl]amino]benzoic acid] | 21.9 µM | > 300 µM
13 | COc1cccc(/C=C/C(=O)Nc2cccc(C#N)c2)c1OCCN(C)C [Example 91, (E)-N-(3-cyanophenyl)-3-(2-(2-(dimethylamino)ethoxy)-3-methoxyphenyl)acrylamide] | 8.38 µM | 18.1 µM
14 | COc1cccc(/C=C/C(=O)Nc2ccccc2C#N)c1OCCN(C)C [Example 92, (E)-N-(2-cyanophenyl)-3-(2-(2-(dimethylamino)ethoxy)-3-methoxyphenyl)acrylamide] | 49.2 µM | 109 µM
15 | COc1ccc(/C=C/C(=O)Nc2cccc(C#N)c2)c(OCCN(C)C)c1 [Example 93, (E)-N-(3-cyanophenyl)-3-(2-(2-(dimethylamino)ethoxy)-4-methoxyphenyl)acrylamide] | 5.23 µM | 17.2 µM
16 | COc1ccc(/C=C/C(=O)Nc2ccccc2C#N)c(OCCN(C)C)c1 [Example 94, (E)-N-(2-cyanophenyl)-3-[2-[2-(dimethylamino)ethoxy]4-methoxy-phenyl]prop-2-enamide] | 21.7 µM | 35 µM
17 | COc1ccc(/C=C/C(=O)Nc2ccccc2C(=O)O)c(OCc2cccnc2)c1OC [Example 96, (E)-2-(3-(3,4-dimethoxy-2-(pyridin-3-ylmethoxy)phenyl)acrylamido)benzoic Acid] | 33.6 µM | > 300 µM
18 | C#CCOc1ccc(/C=C/C(=O)N2CCOc3ccccc32)cc1CC [Example 113, (E)-1-(2H-benzo[b][1,4]oxazin-4(3H)-yl)-3-(3-ethyl-4-(prop-2-yn-1-yloxy)phenyl)prop-2-en-1-one] | 7.75 µM | 32.6 µM
19 | C#CCOc1ccc(/C=C/C(=O)Nc2ccccc2-n2cnc(C)n2)cc1CC [Example 114, (E)-3-(3-ethyl-4-(prop-2-yn-1-yloxy)phenyl)-N-(2-(3-methyl-1H-1,2,4-triazol-1-yl)phenyl)-acrylamide] | 14.3 µM | 82 µM

The next lines start with results.

Row | IC50 [1] | SMILES | CC50 at 48 h [2]
20 | 14.7 µM | C#CCNCc1cc(/C=C/C(=O)Nc2ccccc2C(=O)O)ccc1OC [Example 74, (E)-2-(3-(4-methoxy-3-((prop-2-yn-1-ylamino)methyl)phenyl)acrylamido)benzoic acid] | 319 µM
21 | 27.6 µM | C#CCNCc1ccc(/C=C/C(=O)Nc2ccccc2C(=O)O)cc1OC [Example 75, (E)-2-(3-(3-methoxy-4-((prop-2-yn-1-ylamino)methyl)phenyl)acrylamido)benzoic acid] | > 300 µM
22 | 24.5 µM | C#CCOc1ccc(/C=C/C(=O)Nc2ccccc2C(=O)O)c(OC2CCNC2)c1OC (stereo not drawn) [Example 80, 2-[[(E)-3-(3-methoxy-4-prop-2-ynoxy-2-pyrrolidin-3-yloxyphenyl)prop-2-enoyl]amino]benzoic acid] | > 100 µM
23 | 32.5 µM | C#CCOc1ccc(/C=C/C(=O)Nc2ccccc2C(=O)O)c(OC2CCNCC2)c1OC [Example 83, 2-[[(E)-3-[3-methoxy-2-(4-piperidyloxy)-4-prop-2-ynoxy-phenyl]prop-2-enoyl]amino]benzoic acid] | > 300 µM
24 | 14.7 µM | C#CCOc1ccc(/C=C/C(=O)Nc2ccccc2C(=O)O)c(OCCN2CCOCC2)c1OC [Example 84, 2-[[(E)-3-[3-methoxy-2-(2-morpholinoethoxy)-4-prop-2-ynoxy-phenyl]prop-2-enoyl]amino]benzoic acid] | > 300 µM
25 | 17.6 µM | C#CCOc1c(/C=C/C(=O)Nc2ccccc2C(=O)O)ccc(OC)c1OC [Example 95, (E)-2-(3-(3,4-dimethoxy-2-(prop-2-yn-1-yloxy)phenyl)acrylamido)benzoic Acid] | 111 µM
26 | 46.2 µM | COc1cc(/C=C/C(=O)Nc2ccccc2C(=O)O)ccc1N1CCN(C)CC1 [Example 97, (E)-2-(3-(3-methoxy-4-(4-methylpiperazin-1-yl)phenyl)acrylamido)benzoic acid] | > 300 µM
27 | 9.29 µM | CCc1ccc(/C=C/C(=O)Nc2ccccc2C(=O)O)cc1OC [Example 100, (E)-2-(3-(4-ethyl-3-methoxyphenyl)acrylamido)benzoic Acid] | 37 µM
28 | 17 µM | COc1ccc(/C=C/C(=O)Nc2ccccc2C(=O)O)cc1N1CCOCC1 [Example 101, (E)-2-(3-(4-methoxy-3-morpholinophenyl)acrylamido)benzoic Acid] | 119 µM
29 | 28 µM | COc1cc(/C=C/C(=O)Nc2ccccc2C(=O)O)ccc1N1CCOCC1 [Example 103, (E)-2-(3-(3-methoxy-4-morpholinophenyl)acrylamido)benzoic acid trifluoroacetic acid salt] | 265 µM
30 | 8.44 µM | CCc1cc(/C=C/C(=O)Nc2ccccc2C(=O)O)ccc1OC [Example 105, (E)-2-(3-(3-ethyl-4-methoxyphenyl)acrylamido)benzoic acid] | 79.7 µM
31 | 1.58 µM | COc1ccc(/C=C/C(=O)Nc2ccccc2C(=O)O)cc1CC1CC1 [Example 106, (E)-2-(3-(3-(cyclopropylmethyl)-4-methoxyphenyl)acrylamido)benzoic acid] | 25.1 µM
32 | 40.4 µM | CN1Cc2ccc(/C=C/C(=O)Nc3ccccc3C(=O)O)cc2C1=O [Example 108, (E)-2-(3-(2-methyl-3-oxoisoindolin-5-yl)acrylamido)benzoic acid] | > 300 µM
33 | 24.3 µM | CN1C(=O)COc2cc(/C=C/C(=O)Nc3ccccc3C(=O)O)ccc21 [Example 109, (E)-2-(3-(4-methyl-3-oxo-3,4-dihydro-2H-benzo[b][1,4]oxazin-7-yl)acrylamido)benzoic Acid] | > 300 µM
34 | 13.9 µM | CN1CCOc2cc(/C=C/C(=O)Nc3ccccc3C(=O)O)ccc21 [Example 110, (E)-2-(3-(4-methyl-3,4-dihydro-2H-benzo[b][1,4]oxazin-7-yl)acrylamido)benzoic acid] | > 300 µM
35 | 30 µM | O=C(/C=C/c1ccc2c(c1)NC(=O)CO2)Nc1ccccc1C(=O)O [Example 111, (E)-2-(3-(3-oxo-3,4-dihydro-2H-benzo[b][1,4]oxazin-6-yl)acrylamido)benzoic acid] | > 300 µM
36 | 13 µM | CN1C(=O)COc2ccc(/C=C/C(=O)Nc3ccccc3C(=O)O)cc21 [Example 112, (E)-2-(3-(4-methyl-3-oxo-3,4-dihydro-2H-benzo[b][1,4]oxazin-6-yl)acrylamido)benzoic acid] | > 300 µM
